Measurements published in PubChem BioAssay AID1259407 (Chemical Carcinogenesis Research Information System (CCRIS), 2018).
The source made the active and inactive calls. No rule for the calls is given here.

Test system: CCRIS mutagenicity, Ames/micronucleus/aberration tests
Test: CCRIS mutagenicity studies
Conditions: Test System: AMES SALMONELLA TYPHIMURIUM

CCNCC
mutagenic call (Strain/Indicator: TA98, Metabolic Activation: HAMSTER, LIVER, S-9, AROCLOR 1254 (10%), Method: PREINCUBATION): inactive; negative
mutagenic call (Strain/Indicator: TA98, Metabolic Activation: NONE, Method: PREINCUBATION): inactive; negative
mutagenic call (Strain/Indicator: TA98, Metabolic Activation: RAT, LIVER, S-9, AROCLOR 1254 (10%), Method: PREINCUBATION): inactive; negative
mutagenic call (Strain/Indicator: TA100, Metabolic Activation: HAMSTER, LIVER, S-9, AROCLOR 1254 (10%), Method: PREINCUBATION): inactive; negative
mutagenic call (Strain/Indicator: TA100, Metabolic Activation: NONE, Method: PREINCUBATION): inactive; negative
mutagenic call (Strain/Indicator: TA100, Metabolic Activation: RAT, LIVER, S-9, AROCLOR 1254 (10%), Method: PREINCUBATION): inactive; negative
mutagenic call (Strain/Indicator: TA1535, Metabolic Activation: HAMSTER, LIVER, S-9, AROCLOR 1254 (10%), Method: PREINCUBATION): inactive; negative
mutagenic call (Strain/Indicator: TA1535, Metabolic Activation: NONE, Method: PREINCUBATION): inactive; negative
mutagenic call (Strain/Indicator: TA1535, Metabolic Activation: RAT, LIVER, S-9, AROCLOR 1254 (10%), Method: PREINCUBATION): inactive; negative
mutagenic call (Strain/Indicator: TA1537, Metabolic Activation: HAMSTER, LIVER, S-9, AROCLOR 1254 (10%), Method: PREINCUBATION): inactive; negative
mutagenic call (Strain/Indicator: TA1537, Metabolic Activation: NONE, Method: PREINCUBATION): inactive; negative
mutagenic call (Strain/Indicator: TA1537, Metabolic Activation: RAT, LIVER, S-9, AROCLOR 1254 (10%), Method: PREINCUBATION): inactive; negative

Cc1ccc(NC2OC[C@@H](O)[C@@H](O)[C@@H]2O)cc1 (stereo partly drawn)
mutagenic call (Strain/Indicator: TA100, Metabolic Activation: NONE, Method: LIQUID INCUBATION): active; positive

Nc1cc2c(cc1[N+](=O)[O-])[nH]c1ccccc12
mutagenic call (Strain/Indicator: TA98, Metabolic Activation: NONE, Method: STANDARD PLATE): active; positive
mutagenic call (Strain/Indicator: TA98, Metabolic Activation: RAT, LIVER, S-9, PHENOBARBITAL, Method: STANDARD PLATE): active; positive
mutagenic call (Strain/Indicator: TA100, Metabolic Activation: NONE, Method: STANDARD PLATE): active; positive
mutagenic call (Strain/Indicator: TA100, Metabolic Activation: RAT, LIVER, S-9, PHENOBARBITAL, Method: STANDARD PLATE): active; positive
mutagenic call (Strain/Indicator: TA1537, Metabolic Activation: NONE, Method: STANDARD PLATE): active; positive
mutagenic call (Strain/Indicator: TA1537, Metabolic Activation: RAT, LIVER, S-9, PHENOBARBITAL, Method: STANDARD PLATE): active; positive
mutagenic call (Strain/Indicator: TA1538, Metabolic Activation: NONE, Method: STANDARD PLATE): active; positive
mutagenic call (Strain/Indicator: TA1538, Metabolic Activation: RAT, LIVER, S-9, PHENOBARBITAL, Method: STANDARD PLATE): active; positive
mutagenic call (Strain/Indicator: TA1977, Metabolic Activation: NONE, Method: STANDARD PLATE): active; positive
mutagenic call (Strain/Indicator: TA1977, Metabolic Activation: RAT, LIVER, S-9, PHENOBARBITAL, Method: STANDARD PLATE): active; positive
